This is an account of results in ChEMBL document CHEMBL4411294, “Synthesis and biological evaluation of cyanoaziridine phosphine oxides and phosphonates with antiproliferative activity” (Eur J Med Chem, 2019).

One may read the IC50 as the concentration at which inhibition is half-maximal.

One assay concerns A549. Kind of assay: Cytotoxicity against human A549 cells assessed as reduction in cell viability after 48 hrs by CCK8 assay. The note with it: A549, 48 h. Format: functional, cell-based. In general terms: Formazan colour is commonly taken as a measure of viable cells.
In the next assay the test system is HEK293. Kind of assay: Cytotoxicity against human HEK293 cells assessed as reduction in cell viability after 48 hrs by CCK8 assay. Format: cell-based. The following applies: HEK293, 48 h.
A further assay relates to MRC5. Description: Cytotoxicity against human MRC5 cells assessed as reduction in cell viability after 48 hrs by CCK8 assay. The assay is classed as cell-based. The note with it: MRC5, 48 h.

As for `C[C@@]1(C#N)N[C@H]1P(=O)(c1ccccc1)c1ccccc1` (relative stereo), the IC50 in the assay with A549 was 2 µM; in the assay with HEK293, above 50 µM; with MRC5, above 50 µM.
As for `CC[C@]1(C#N)[C@H](P(=O)(c2ccccc2)c2ccccc2)N1S(=O)(=O)c1ccc(C)cc1` (relative stereo), the values for the IC50 in the assay on A549, in the assay on HEK293 and in the assay with MRC5 were 2.3 µM, 43.2 µM and above 50 µM, respectively.
The like results for `Cc1ccc(S(=O)(=O)N2[C@@H](P(=O)(OC(C)C)OC(C)C)[C@]2(C)C#N)cc1` (relative stereo) were, in that order, 3.4 µM, above 50 µM and above 50 µM.
The like results for `CC[C@@]1(C#N)N[C@H]1P(=O)(c1ccccc1)c1ccccc1` (relative stereo) were, in that order, 3.3 µM, above 50 µM and above 50 µM.
The like results for `C[C@@]1(C#N)N[C@H]1P(=O)(O)O` (relative stereo) were, in that order, 8.5 µM, above 50 µM and above 50 µM.
As to `CCOP(=O)(OCC)[C@@H]1N(S(=O)(=O)c2ccc(C)cc2)[C@]1(C#N)CC` (relative stereo), the IC50 with A549 is 4.9 µM; in the assay on HEK293, above 50 µM; in the assay on MRC5, above 50 µM.
Turning to `CCOP(=O)(OCC)[C@@H]1N(S(=O)(=O)c2ccc(C)cc2)[C@@]1(C)C#N` (relative stereo), the IC50 in the assay on HEK293 and in the assay with MRC5 was above 50 µM throughout.
As to `C[C@]1(C#N)[C@H](P(=O)(c2ccccc2)c2ccccc2)N1C(=O)OCc1ccccc1` (relative stereo), the IC50 is 8.1 µM with A549, 30.1 µM in the assay with HEK293 and above 50 µM with MRC5.
Take `Cc1ccc(S(=O)(=O)N2[C@@H](P(=O)(c3ccccc3)c3ccccc3)[C@]2(C)C#N)cc1` (relative stereo): the IC50 in the assay with A549 was 3.1 µM; with HEK293, above 50 µM; with MRC5, above 50 µM.
As to `COc1cccc2c1C(=O)c1c(O)c3c(c(O)c1C2=O)C[C@@](O)(C(=O)CO)C[C@@H]3O[C@H]1C[C@H](N)[C@H](O)[C@H](C)O1` [DOXORUBICIN], the IC50 with MRC5 was above 50 µM.
